Data reported in patent publication EP1298213A1, “Variants of an Erwinia-type creatinase” (Roche Diagnostics GmbH, priority 2001, dated 2003).

Tests used:
[1] = tested on: Erwinia sp. DSM 97-934 creatinase variant CT1m24 (N130D, I278T), SEQ ID NO: 10; test: Km determination, coupled creatinase activity assay; assay type: biochemical; settings: creatine substrate at 90, 45, 22.5, 11.3, 5.6 and 2.8 mM; 0.1 M potassium phosphate buffer pH 7.8; 25°C
Protocol: (§1) The activity assay for creatinase and its variants was performed by using creatine as substrate and a coupled enzymatic reaction according to Guder, W. G., et al., J Clin Chem Clin Biochem 24 (1986) 889-902.
(§2) The reaction mixture was set up by combining the following reagents:
(§3) The assay for creatinase was carried out at 25°C and at the wavelength of 546 nm for 10 min. ΔE was calculated from the measurement points of 6 to 10 min.
(§4) For KM determination, creatinase activity was determined according to the assay procedure described in Example 3 using six different concentrations of creatine substrate: 90 mM, 45 mM, 22.5 mM, 11.3 mM, 5.6 mM and 2.8 mM.

[2] = tested on: Erwinia sp. DSM 97-934 creatinase variant CT2m10 (N130D, I278T, F395L), SEQ ID NO: 14; test: as above; assay type: biochemical; settings: creatine substrate at 90, 45, 22.5, 11.3, 5.6 and 2.8 mM; 0.1 M potassium phosphate buffer pH 7.8; 25°C
Protocol: as §1, §2, §3, §4

[3] = tested on: Erwinia sp. DSM 97-934 creatinase variant CT2m28 (N130D, I304L, I278T), SEQ ID NO: 16; test: as above; assay type: biochemical; settings: creatine substrate at 90, 45, 22.5, 11.3, 5.6 and 2.8 mM; 0.1 M potassium phosphate buffer pH 7.8; 25°C
Protocol: as §1, §2, §3, §4

[4] = tested on: Erwinia sp. DSM 97-934 creatinase variant CT2m9 (N130D, M203V, I278T), SEQ ID NO: 12; test: as above; assay type: biochemical; settings: creatine substrate at 90, 45, 22.5, 11.3, 5.6 and 2.8 mM; 0.1 M potassium phosphate buffer pH 7.8; 25°C
Protocol: as §1, §2, §3, §4

[5] = tested on: Erwinia sp. DSM 97-934 creatinase variant CTqc2 (F59W, N130D, I278T), SEQ ID NO: 18; test: as above; assay type: biochemical; settings: creatine substrate at 90, 45, 22.5, 11.3, 5.6 and 2.8 mM; 0.1 M potassium phosphate buffer pH 7.8; 25°C
Protocol: as §1, §2, §3, §4

[6] = tested on: Erwinia sp. DSM 97-934 creatinase variant CTsd2 (N130D, M203V, I278T, F395L), SEQ ID NO: 20; test: as above; assay type: biochemical; settings: creatine substrate at 90, 45, 22.5, 11.3, 5.6 and 2.8 mM; 0.1 M potassium phosphate buffer pH 7.8; 25°C
Protocol: as §1, §2, §3, §4

[7] = tested on: Erwinia sp. DSM 97-934 creatinase variant CTsd7 (F59W, N130D, M203V, I278T, F395L), SEQ ID NO: 22; test: as above; assay type: biochemical; settings: creatine substrate at 90, 45, 22.5, 11.3, 5.6 and 2.8 mM; 0.1 M potassium phosphate buffer pH 7.8; 25°C
Protocol: as §1, §2, §3, §4

[8] = tested on: Erwinia sp. DSM 97-934 creatinase, wild type, SEQ ID NO:2; test: as above; assay type: biochemical; settings: creatine substrate at 90, 45, 22.5, 11.3, 5.6 and 2.8 mM; 0.1 M potassium phosphate buffer pH 7.8; 25°C
Protocol: as §1, §2, §3, §4

[9] = tested on: creatinase from Alcalingenes; settings: reported in patent US 5,451,520; substrate creatine taken from context (b8); cited from earlier work

**Q.** Which results are given for CN(CC(=O)O)C(=N)N [creatine]?
**A.** Km [1]: 8.2 mM; Km [2]: 3.4 mM; Km [3]: 4 mM; Km [4]: 6.3 mM; Km [5]: 6.6 mM; Km [6]: 2.1 mM; Km [7]: 2 mM; Km [8]: 4.3 mM; Km [9]: 13 mM
